We go through one molecule from US20200000756A1, “NEOSTIGMINE COMBINATION AND COMPOSITIONS” (priority 2017, published 2020).

Each structure is given as a SMILES string. “Also recorded” adds a separate entry of the source.

The data set in a line: Phase I single-blind study: single oral doses of neostigmine bromide with or without a single oral dose of ondansetron hydrochloride dihydrate. Particulars: six human subjects. The data set is classed as in vivo. The method, then: The ability of the 5HT3-antagonists for preventing the gastro-intestinal adverse effects of orally administered neostigmine bromide in humans was tested.
A Phase I study was conducted in six human subjects receiving a single oral dose of neostigmine bromide with or without a single oral dose of ondansetron hydrochloride dihydrate, as a representative 5HT3-antagonist. The study was a single center, single-blind.
To be enrolled in the study, participants (aged 18 to 60 years of age) were required, to refrain from consuming xanthine, quinine and caffeine containing beverages, and to refrain from prolonged intensive physical exercise during the study conduct. […] The key criteria for exclusion of a subject from enrollment in the study were as follows:
any clinically relevant acute or chronic disease which could interfere with the subjects' safety during the trial, expose them to undue risk, or interfere with the study objectives; history or presence of gastrointestinal, hepatic, or renal disease or other condition known to interfere with the absorption, distribution, metabolism or excretion of drugs; history of substance abuse, known drug addiction, or positive test for drugs of abuse or alcohol; history of drug or other significant allergy; ECG changes including QT interval prolongation and congenital long QT syndrome. […]

Regarding `Cc1nccn1CC1CCc2c(c3ccccc3n2C)C1=O` (racemic) [ondansetron, (±) 1,2,3,9-tetrahydro-9-methyl-3-[(2-methyl-1H-imidazol-1-yl)methyl]-4H-carbazol-4-one], for the setting “neostigmine dose escalated together with oral ondansetron hydrochloride dihydrate 10 mg (8 mg base)”, the “neostigmine dose reached before second intolerable dose (FID-2) on co-administration of ondansetron” value was “enabled subjects to reach neostigmine doses as high as or higher than the recommended efficacious dose for the treatment of MG”. Where the note is “single oral ondansetron hydrochloride dihydrate 10 mg (equivalent to 8 mg ondansetron base) with oral neostigmine bromide at the first intolerable dose and above”, the “gastro-intestinal AEs of neostigmine on co-administration of ondansetron” value is “attenuated gastro-intestinal AEs reported with neostigmine alone; also recorded: prevented the occurrence of gastro-intestinal AEs”.
